# Test results from US5928627A, “Fluorescent chelates as visual tissue specific imaging agents” (The Dow Chemical Company, priority 1997, dated 1999).
# “Also recorded” adds a separate entry of the source. Like-named read-outs stand apart in the source and are kept apart here.
# Columns and labels:
# [1] = test system: HT-29 cells; assay: Cytotoxicity HT-29 cells (Trypan blue); type: cell-based; settings: 2 mL of 2 mM Tb-PCTMB
# Procedure: HT-29 cell lines were obtained from American Type Culture Collection (ATCC) and maintained in Dulbecco's Modified Eagle Medium (DMEM) with 10% fetal bovine serum. Tree days prior to confluence, the cells were inoculated with 2 mL of 2 mM Tb-PCTMB and allowed to grow to confluence. Two days prior to confluence, the unbound TB-PCTMB was removed with four washings of PBS and the cells were removed from the flask with 3 mL of trypsin. The cell suspension was transferred to a centrifuge tube with 12 mL of growth media and spun a 1000 g for 10 minutes to pellet the cells. The media and the trypsin were removed and the cell suspension was resuspended in 5 mL of media. For ease in counting, 100 μL of the cell suspension was mixed with 100 μL of media in a microfuge tube. Fifty μL of this dilution was mixed with 50 μL of Trypan blue stain and loaded into the hemocytometer. The cells in 5 squares on the hemocytometer were counted where stained cells were dead and unstained cells were alive. Multiplication of the average count per square by the dilution factor (4) gave the number of cells×10^4 per mL. The number of cells reported is the average of three individual counts.
# [2] = test system: rat bone and intestinal tissues; assay: Tissue fluorescence microscopy/tissue selectivity of Tb chelates in rats
# [3] = test system: rat bone and intestinal tissues; settings: in vivo
# [4] = test system: colon adenocarcinoma (1,2 dimethylhydrazine induced tumors); assay: Fluorescence imaging of normal versus neoplastic colon tissue after lavage; type: in vivo, Sprague Dawley rat; settings: 0.1 mmol/kg, 20 minutes
# Procedure: Tumors were induced in Sprague Dawley rats via injection of 1,2 dimethylhydrazine dihydrochloride and the subsequent feeding of a high fat, meat-based diet. […] One animal with an observable lesion was anesthetized, allowing it to respire during lavage introduction of the fluorescent marker. An aqueous solution of Tb-PTCMB at a concentration of 0.1 mmol/kg animal body weight, was administered to a Sprague Dawley rat using the 1.0 mm working lumen of the micro-endoscope. Introduction of the marker solution was made at the site of the suspect tissue mass with a volume necessary to fill the entire large intestine (method described in U.S. Pat. No. 5,456,245). […]
# Upon dissection of the large intestine, a large occlusive mass approximately 4.5 cm by 5.0 cm was found approximately 15 cm from the rectum. […] Four slides from each tissue region were first left unstained for fluorescence microscopy imaging as described below and then stained with Hematoxylin and Eosin (H&E stain). Using standard histological criteria for diagnosis, tissue taken from the suspect site was determined to be adenocarcinoma. […] The tissue taken from a location removed from the abnormality was determined to be normal.
# Using an in-house modified microscope, samples from the suspect and remote regions of the animal were imaged. Shown in FIGS. 10C and 11C are the fluorescence images of the identical regions of the same tissues. […]
# [5] = test system: IEC-6 cells; assay: Cytotoxicity IEC-6 cells; type: cell-based
# Excerpt: *Average of triplicate counting. Procedure detailed in Ref. 27
# [6] = test system: rat bone (femur); assay: Micro-endoscopic fluorescence imaging of rat femur; type: in vivo
# Excerpt: The optical train used is depicted in FIG. 5. For the resolution studies a 1951 USAF resolution target was used. The resolution target consists of groups of elements (lines) that are a known width, length and distance apart. The lines on the target are made from a black emulsion deposited onto a white positive background (clear glass). The images are obtained by back illuminating the resolution target using an IR filtered xenon discharge lamp. The beam from an optical fiber passes through a diffuser of in-house construction which replaces the 270 nm interference filter (4) shown in FIG. 5. The distance of the scope tip from the target (1.5 mm) was chosen so that the best in-focus image is produced. The image was collected by a 0°, 30° and 60° viewing angle with respect to the central axis of the thin rod lens endoscope. A 10× microscope objective, placed 10 mm from the endoscope, collected, magnified and played the image onto a CCD (5). […] The software produces a graph of light intensity as a function of position across the line pairs. The limiting resolution (LP/mm) is calculated using a aerial image modulation (AIM) plot and is defined as the point where the dI/dx remains constant.
# Field of view measurements were made by repositioning the target so that a single line laterally spanned the field of view of the endoscope. The circular field of view is easily calculated knowing the length of the line on the resolution target the represents the diameter of the viewing zone. […]
# For analysis of the bone fluorescence, two rats were injected with Tb-PCTMP or Tb-BP2P. […]
# For the fluorescence measurements, the instrument in FIG. 5 was modified. […] A 550 nm bandpass filter was placed between the microscope objective (3) and the CCD (5) to select fluorescence and block background light. […]
# Upon visual inspection of the high resolution video monitor (7), resolution of 181 LP/mm can be obtained. […] As calculated in a manner similar to Example II, it is possible to estimate the quantity of solute within a particular imaged zone. […]
# [7] = test system: UMR106 cells; assay: Subcellular uptake fluorescence in UMR106 cells (organelle and membrane smears); type: cell-based; settings: 2 mL of 2×10^-3 M
# Procedure: UMR106 cells were obtained from American Type Culture Collection and maintained in Basal Eagle Media with 10% fetal bovine serum. Cells were propagated so that 3×10^7 cells were contained in 25 mL. One day prior to confluence, the cells were inoculated with 2 mL of 2×10^-3 M Tb-PCTMP. At confluence, the media and Tb-TCTMP was removed with four washings of PBS. Cells were separated from the flask with 3 mL of trypsin, transferred to a centrifuge tube with 12 mL of media and spun at 1000 g for 10 minutes to pellet the cells. The pellet was resuspended in 2 mL of media and frozen by submersion of the tube into liquid nitrogen. The frozen mixture was scooped out of the tube and transferred to a mortar. To the mixture, an equal weight of sea sand and 10 mL of liquid nitrogen were added. This mixture was ground with a pestle for 30 minutes until liquefied. The resulting mixture was transferred to a centrifuge tube and spun at 10,000 rpm for 15 minutes leaving intact cells, sand and membranes in the pellet and the cytoplasmic organelles in the supernatant. The supernatant was spun at 45,000 rpm for 90 minutes in an ultracentrifuge tube to pellet the organelles. […] Both the membranes and the organelles were smeared onto microscope slides and analyzed using a Zeiss microscope, modified for UV excitation.
# [8] = Fluorescence properties of the complexes; type: physicochemical; settings: excited with a UV lamp
# Excerpt: The use of terbium (Tb) or europium (Eu) as the central metal ion to render a tissue specific fluorescent probe is very appealing. Derivatives of this type would be valuable for visual assessment of tissue conditions such as early detection of cancer and would not depend upon protein conjugation to reach their target. Furthermore, concentration of the active fluorescent material could conceivably be much higher than in the case of immunoassays making detection much easier. The present complexes have an excitation band of 250 to 290 nm and a spike emission with peaks at bands of 490 to 510 nm, 540 to 560 nm, 590 to 600 nm and 615 to 635 nm, high quantum efficiency and millisecond relaxation lifetimes which allow signal collection after prompt tissue autofluorescence has subsided and allows data collection outside the range for normal tissue fluorescence. […] Furthermore, chelates derived from this family of macrocyclic ligands are among the most thermodynamically and kinetically inert lanthanide complexes, a paramount consideration for biological studies where metal ion toxicity is of major importance.
smiles,measurement,setting,value
"CCCCOP(=O)(O)CN1CCN(CP(=O)(O)OCCCC)Cc2cccc(n2)CN(CP(=O)(O)OCCCC)CC1.[Tb] [Tb-PCTMB, terbium 3,6,9-tris(methylenephosphonic acid n-butyl ester)-3,6,9,15, tetraazabicyclo[9.3.1]pentadeca-1(15),11,13-triene]",Total (Cells/ml),"[1]; average of triplicate counting, control 5.30 × 10^6",4.70 × 10^6 Cells/ml
same,Dead Cells,[1]; control 5.7%,8.5%
same,Live Cells,[1]; control 94.3%,91.5%
same,tissue uptake/selectivity,[2],substantial hepatobiliary uptake; also recorded: concentrates in the small intestine
same,interactions between the chelate and blood proteins,[3],enhances interactions between the chelate and blood proteins
same,relative difference between the quantity of marker solute in normal versus neoplastic tissue,[4],an order of magnitude
same,uptake by abnormal colon tissue,[4],preferential or enhanced uptake
same,Total Cells,"[5]; average of triplicate counting, control 5.70 × 10^6",5.30 × 10^6
same,Dead Cells,[5]; control 10.5%,9.4%
same,Live Cells,[5]; control 89.5%,90.6%
"O=P(O)(O)CN1CCN(CP(=O)(O)O)Cc2cccc(n2)CN(CP(=O)(O)O)CC1.[Tb] [Tb-PCTMP, terbium 3,6,9-tris(methylenephosphonic acid)-3,6,9,15-tetraazabicyclo[9.3.1]pentadeca-1(13),11,13-triene]","quantity per pixel, blue-purple contour","[6]; excised rat femur, FIG. 8",1.54×10^-15 moles Tb-PCTMP/pixel
same,"quantity per pixel, red contour","[6]; excised rat femur, FIG. 8",3.35×10^-15 moles Tb-PCTMP/pixel
same,solute present in entire imaged region of the bone (surface),"[6]; rat femur, 2 hours",about 5.19 picomoles
same,fluorescence in the organelle smear of dosed cells,[7]; control no discernible fluorescence,significant fluorescence was detected
same,fluorescence in the membrane smears,[7]; dosed and control cells,No signal was detected
same,tissue uptake/selectivity,[3],skeletal system uptake
same,visible emission of the isolated complex,[8],brilliant green visible emission
"O=P(O)(O)CN1Cc2cccc(n2)CN(CP(=O)(O)O)Cc2cccc(n2)C1.[Tb] [Tb-BP2P, terbium N,N'-bis(methylenephosphonic acid)-2,11,diaza[3.3]-(2,6)pyridinophane]",distribution of the chelate in bone,[3],fairly uniform
